The text below walks through data of patent US4252947A, “Novel quinazolinone” (Roussel Uclaf, priority 1976, dated 1981).

Counter-ions that a name gives are not always drawn.

Data set [1] has as its system Eimeria tenella. The experiment in a line: Coccidiostatic activity in chicks infested with Eimeria tenella. It counts as in vivo. The note with it: for weight gain / weight gain (or less) as compared to the animals which received product A-B: chicks infested with Eimeria tenella; for weight gain: 14 to 22 days old; for weight gain / weight gain (or less) as compared to the animals which received product A-B / consumption index: feed with 1 ppm of Product A or 3 ppm of Product A-B; for weight gain (or less) as compared to the animals which received product A-B: relative to product A-B; for consumption index: feed consumed compared to weight gain, higher = more sick. An excerpt: The coccidiostatic activity of the product of Step E of Example 1 (product A) was studied in comparison with that of a racemic mixture of 7-bromo-6-chloro-3-[3-(3-hydroxy-2-piperidyl)-acetonyl]-4(3H)-quinazolinone (product A-B), 14 day old chicks were weighed and were divided into 3 groups of 13 animals. One group received a feed containing 1 ppm of product A, a second group received a feed containing 3 ppm of product A-B and the 3rd group received just the feed without any additive. The next day, the chicks were infested with Eimeria tenella coccidies and when the chicks were 22 days old, they were weighed as well as the remaining feed. The caecums were removed and the number of caecal lesions were noted. Also noted was (1) the weight of gain (or less) of the chicks as compared to the animals which received product A-B, (2) consumption index which is the amount of feed consumed compared to the weight gain which indice was all the more elevated than the animals which were more sick and (3) the intensity of the lesions on a seal of 1 to 6 were noted.

Data set [2] in a line: Oral acute toxicity (LD50, method of Finney). It counts as in vivo. To be noted: Swiss female mice; for LD50: mouse, in vivo, dose which caused death in 50% of the animals. The method, then: The oral acute toxicity was determined for products A and A-B on groups of Swiss female mice by the method of Finney and the results were expressed as LD50 (the dose which caused death in 50% of the animals). The DL50 for product A was 3.7 mg/kg and for product A-B was 6.8 mg/kg. The acute toxicity of product A is only about 1.8 times greater than product A-B.

In general, LD50 refers to the dose expected to kill half of the subjects tested. For the compound `O=C(CC1NCCCC1O)Cn1cnc2cc(Br)c(Cl)cc2c1=O` (racemic) [Product A-B, 7-bromo-6-chloro-3-[3-(3-hydroxy-2-piperidyl)-acetonyl]-4(3H)-quinazolinone, reference compound], in data set [1], the “weight gain” value is reported as 90.30 g, the “weight gain (or less) as compared to the animals which received product A-B” value worked out at 0% and the consumption index was 2.018. In addition, the LD50 in data set [2] was found to be 6.8 mg/kg.
As for `O=C(C[C@H]1NCCC[C@@H]1O)Cn1cnc2cc(Br)c(Cl)cc2c1=O` (single isomer, unassigned) [Product A, dextrorotary 7-bromo-6-chloro-3-[3-(3-hydroxy-2-piperidyl)-acetonyl]-4(3H)-quinazolinone hydrobromide], in data set [1], the “weight gain” value is reported as 103.07 g, the “weight gain (or less) as compared to the animals which received product A-B” value was “+14.14%” and the consumption index amounted to 1.807. In addition, the “coccidiostatic activity greater than the racemic product A-B” value in data set [1] (ratio to racemic mixture) was 3 times. The compound also displayed an LD50 in data set [2] of 3.7 mg/kg. Besides, the “acute toxicity greater than product A-B” value in data set [2] (ratio to racemic mixture) is given as “about 1.8 times”.
